The results in this text go back to patent US20080274892A1, “Novel Haloalkylsulfonanilide Derivative, Herbicide, and Method of Use Thereof” (priority 2005, published 2008).

Molecules are shown by their SMILES.

Series [1] concerns bulrush. The series is described as follows: Test Example 1: herbicidal efficacy on rice paddy weeds pre-emergence. The series is classed as in vivo, Scirpus juncoides. To be noted: 21 days. The protocol: (§1) A 75 cm^2 plastic pot was filled with soil (clay loam) and planted seeds of bulrush which is a rice paddy weed. After covering the top with 75 cm^3 soil mixed with seeds of false pimpernel, the pot was filled with water so that the soil submerged under 5 cm depth of water. The predetermined effective dosage ([…]) of a formulation containing the compound of the present invention prepared according to Formulation Example 1-4 as an active ingredient was diluted in water and added to the pot water surface dropwise. The pot was kept in a hot house for 21 days and the herbicidal efficacy was investigated. The herbicidal efficacy was evaluated according to the following standard by comparing with untreated control. “-” in the table represents test not done.
(§2) The standard of judgment for herbicidal efficacy (degree of growth inhibition) and phytotoxicity 4 . . . 90%-100% of herbicidal efficacy or phytotoxicity 3 . . . 70%-89% of herbicidal efficacy or phytotoxicity 2 . . . 40%-69% of herbicidal efficacy or phytotoxicity 1 . . . 1%-39% of herbicidal efficacy or phytotoxicity 0 . . . 0% of herbicidal efficacy or phytotoxicity

Series [2] has as its system false pimpernel. The description is as above. Format: in vivo, Lindernia pyxidaria. The conditions noted are these: 21 days. The protocol:
as §1, §2

Series [3] concerns bulrush. The experiment in a line: Test Example 2: herbicidal efficacy on rice paddy weeds post-emergence. Format: in vivo, Scirpus juncoides. The conditions noted are these: 21 days after treatment.
Description: as §2
(§3) A 75 cm^2 plastic pot was filled with soil (clay loam) and planted seeds of barnyard glass and bulrush which is a rice paddy weed. After covering the top with 75 cm^3 soil mixed with seeds of false pimpernel, the pot was filled with water so that the soil submerged under 5 cm depth of water and kept in a hot house. […] The pot was kept in a hot house for 21 days after the treatment and the herbicidal efficacy was investigated and evaluated according to the standard in Test Example 1 by comparing with the untreated control. “-” in the table represents test not done.

Series [4] relates to false pimpernel. The description is as above. Format: in vivo, Lindernia pyxidaria. To be noted: 21 days after treatment.
Description: as §2, §3

Series [5] concerns paddy rice plant (cultivar: Nihonbare). The experiment in a line: Test Example 3: phytotoxicity test for transplanted paddy rice plant. Format: in vivo. The conditions noted are these: 21 days after treatment; for Phytotoxicity to paddy rice: transplanted rice. The protocol: as §2
A 75 cm^2 plastic pot was filled with soil (clay loam), and water was added so that the soil was submerged under 5 cm depth of water. Two paddy rice plant (cultivar: Nihonbare) at two leaves stage were transplanted at the depth of 1 cm and kept in a hot house. […] The pot was kept in a hot house for 21 days after the treatment and the phytotoxicity was investigated and evaluated according to the standard in Test Example 1 by comparing with the untreated control. “-” in the table represents test not done.

The mark [6] stands for this setting: dosage 1000 g/ha, post-emergence, one leaf stage.
The mark [7] stands for this setting: dosage 1000 g/ha, treated 5 days after transplantation.
Where [8] appears, read: dosage 300 g/ha, post-emergence, one leaf stage.
Setting [9] is: dosage 1000 g/ha active ingredient, post-emergence treatment at one leaf stage, vs untreated control.

As to `COC(=O)N(c1ccccc1CN1CC(C)(C=C(C)C)OC1=O)S(=O)(=O)C(F)(F)F` (stereo not drawn) [Compound 1-166], the “Bulrush pre (herbicidal efficacy grade)” value in series [1] (dosage 1000 g/ha) is reported as 4 (90%-100% of herbicidal efficacy or phytotoxicity). For the same compound, the “False pimpernel pre (herbicidal efficacy grade)” value (“False pimpernel pre” for short) in series [2] (dosage 1000 g/ha) is 4 (90%-100% of herbicidal efficacy or phytotoxicity). Besides, the “Bulrush post (herbicidal efficacy grade)” value in series [3] (setting [6]) is on record as 4 (90%-100% of herbicidal efficacy or phytotoxicity). Further, the “False pimpernel post (herbicidal efficacy grade)” value (shortened to “False pimpernel post”) in series [4] (setting [6]) was 4 (90%-100% of herbicidal efficacy or phytotoxicity). Further, in series [5] (setting [7]), the “Phytotoxicity to paddy rice” value was 2 (40%-69% of herbicidal efficacy or phytotoxicity).
Consider `O=C1OC2(CC2)CN1Cc1ccccc1NS(=O)(=O)C(F)(F)F` [Compound 1-88], for which the “Bulrush pre (herbicidal efficacy grade)” value in series [1] (dosage 300 g/ha) was 4 (90%-100% of herbicidal efficacy or phytotoxicity). Besides, the “False pimpernel pre” value in series [2] (dosage 300 g/ha) is 4 (90%-100% of herbicidal efficacy or phytotoxicity). Besides, the “Bulrush post (herbicidal efficacy grade)” value in series [3] (setting [8]) is on record as 4 (90%-100% of herbicidal efficacy or phytotoxicity). Further, the “False pimpernel post” value in series [4] (setting [8]) is 4 (90%-100% of herbicidal efficacy or phytotoxicity). Also, the “Phytotoxicity to paddy rice” value in series [5] (dosage 300 g/ha) is 1 (1%-39% of herbicidal efficacy or phytotoxicity).
With `CC(C)COC(=O)N(c1ccccc1CN1C(=O)OC(C)C1=O)S(=O)(=O)C(F)(F)F` (stereo not drawn) [Compound 1-191], in series [1] (dosage 300 g/ha), the “Bulrush pre (herbicidal efficacy grade)” value is on record as 4 (90%-100% of herbicidal efficacy or phytotoxicity). In series [2] (dosage 300 g/ha), the “False pimpernel pre” value was 4 (90%-100% of herbicidal efficacy or phytotoxicity). Besides, in series [3] (setting [8]), the “Bulrush post (herbicidal efficacy grade)” value is 4 (90%-100% of herbicidal efficacy or phytotoxicity). The “False pimpernel post” value in series [4] (setting [8]) is 2 (40%-69% of herbicidal efficacy or phytotoxicity). For the same compound, in series [5] (dosage 300 g/ha), the “Phytotoxicity to paddy rice” value is recorded as 0 (0% of herbicidal efficacy or phytotoxicity).
As for `CCCCCCCCCCCCCCCCOC(=O)N(c1ccccc1CN1CC(C)(C)OC1=O)S(=O)(=O)C(F)(F)F` [Compound 1-84], the “Bulrush pre (herbicidal efficacy grade)” value in series [1] (dosage 300 g/ha) is recorded as 4 (90%-100% of herbicidal efficacy or phytotoxicity). Moreover, the “False pimpernel pre” value in series [2] (dosage 300 g/ha) was 4 (90%-100% of herbicidal efficacy or phytotoxicity). The “Bulrush post (herbicidal efficacy grade)” value in series [3] (setting [8]) was 3 (70%-89% of herbicidal efficacy or phytotoxicity). In addition, in series [4] (setting [8]), the “False pimpernel post” value is on record as 4 (90%-100% of herbicidal efficacy or phytotoxicity). The “Phytotoxicity to paddy rice” value in series [5] (dosage 300 g/ha) was 1 (1%-39% of herbicidal efficacy or phytotoxicity).
For `CCC1OC(=O)N(Cc2ccccc2N(C(=O)OCC(C)C)S(=O)(=O)C(F)(F)F)C1=O` (stereo not drawn) [Compound 1-193], the “Bulrush pre (herbicidal efficacy grade)” value in series [1] (dosage 300 g/ha) was 4 (90%-100% of herbicidal efficacy or phytotoxicity). The “False pimpernel pre” value in series [2] (dosage 300 g/ha) is on record as 4 (90%-100% of herbicidal efficacy or phytotoxicity). Besides, the “Bulrush post (herbicidal efficacy grade)” value in series [3] (setting [8]) is 4 (90%-100% of herbicidal efficacy or phytotoxicity). For the same compound, the “False pimpernel post” value in series [4] (setting [8]) is listed as 1 (1%-39% of herbicidal efficacy or phytotoxicity). The “Phytotoxicity to paddy rice” value in series [5] (dosage 300 g/ha) is given as 0 (0% of herbicidal efficacy or phytotoxicity).
`CC1(C)CN(Cc2ccccc2N(C(=O)OCc2ccccc2)S(=O)(=O)C(F)(F)F)C(=O)O1` [Compound 1-83]: in series [1] (dosage 300 g/ha), the “Bulrush pre (herbicidal efficacy grade)” value was 4 (90%-100% of herbicidal efficacy or phytotoxicity). Further, the “False pimpernel pre” value in series [2] (dosage 300 g/ha) is 1 (1%-39% of herbicidal efficacy or phytotoxicity). For the same compound, the “Bulrush post (herbicidal efficacy grade)” value in series [3] (setting [8]) was 4 (90%-100% of herbicidal efficacy or phytotoxicity). The “False pimpernel post” value in series [4] (setting [8]) was 1 (1%-39% of herbicidal efficacy or phytotoxicity). Besides, the “Phytotoxicity to paddy rice” value in series [5] (dosage 300 g/ha) is 0 (0% of herbicidal efficacy or phytotoxicity).
As to `COCC1CN(Cc2ccccc2NS(=O)(=O)C(F)(F)F)C(=O)O1` (stereo not drawn) [Compound 1-35], the “Bulrush pre (herbicidal efficacy grade)” value in series [1] (dosage 1000 g/ha) is recorded as 4 (90%-100% of herbicidal efficacy or phytotoxicity). Further, in series [2] (dosage 1000 g/ha), the “False pimpernel pre” value is 4 (90%-100% of herbicidal efficacy or phytotoxicity). For the same compound, the “Bulrush post (herbicidal efficacy grade)” value in series [3] (setting [6]) is 4 (90%-100% of herbicidal efficacy or phytotoxicity). The “False pimpernel post” value in series [4] (setting [6]) was 4 (90%-100% of herbicidal efficacy or phytotoxicity). In addition, the “Phytotoxicity to paddy rice” value in series [5] (setting [7]) was 1 (1%-39% of herbicidal efficacy or phytotoxicity).
For `CCc1cn(Cc2ccccc2NS(=O)(=O)C(F)(F)F)c(=O)o1` [Compound 1-209], the “Bulrush pre (herbicidal efficacy grade)” value in series [1] (dosage 300 g/ha) is 3 (70%-89% of herbicidal efficacy or phytotoxicity). In addition, the “False pimpernel pre” value in series [2] (dosage 300 g/ha) is given as 4 (90%-100% of herbicidal efficacy or phytotoxicity). Also, the “Bulrush post (herbicidal efficacy grade)” value in series [3] (setting [8]) is reported as 3 (70%-89% of herbicidal efficacy or phytotoxicity). Also, the “False pimpernel post” value in series [4] (setting [8]) was 2 (40%-69% of herbicidal efficacy or phytotoxicity). For the same compound, the “Phytotoxicity to paddy rice” value in series [5] (dosage 300 g/ha) was 1 (1%-39% of herbicidal efficacy or phytotoxicity).
Turning to `CC(C)COC(=O)N(c1ccccc1CN1CC(C)(C2CCCCC2)OC1=O)S(=O)(=O)C(F)(F)F` (stereo not drawn) [Compound 1-156], the “Bulrush pre (herbicidal efficacy grade)” value in series [1] (dosage 300 g/ha) was 4 (90%-100% of herbicidal efficacy or phytotoxicity). Also, in series [2] (dosage 300 g/ha), the “False pimpernel pre” value is reported as 4 (90%-100% of herbicidal efficacy or phytotoxicity). The “Bulrush post (herbicidal efficacy grade)” value in series [3] (setting [8]) is on record as 4 (90%-100% of herbicidal efficacy or phytotoxicity). Further, in series [4] (setting [8]), the “False pimpernel post” value is listed as 4 (90%-100% of herbicidal efficacy or phytotoxicity). Moreover, the “Phytotoxicity to paddy rice” value in series [5] (dosage 300 g/ha) is reported as 1 (1%-39% of herbicidal efficacy or phytotoxicity).
For `CC1OC(=O)N(Cc2ccccc2NS(=O)(=O)C(F)(F)F)C1=O` (stereo not drawn) [Compound 1-190], in series [1] (dosage 300 g/ha), the “Bulrush pre (herbicidal efficacy grade)” value is on record as 4 (90%-100% of herbicidal efficacy or phytotoxicity). Besides, the “False pimpernel pre” value in series [2] (dosage 300 g/ha) is given as 4 (90%-100% of herbicidal efficacy or phytotoxicity). In addition, the “Bulrush post (herbicidal efficacy grade)” value in series [3] (setting [8]) is given as 4 (90%-100% of herbicidal efficacy or phytotoxicity). Also, the “False pimpernel post” value in series [4] (setting [8]) is 2 (40%-69% of herbicidal efficacy or phytotoxicity). Besides, the “Phytotoxicity to paddy rice” value in series [5] (dosage 300 g/ha) is reported as 0 (0% of herbicidal efficacy or phytotoxicity).
For the compound `COCOc1cccc(CN2CC(C)(C)OC2=O)c1N(C(=O)OCC(C)C)S(=O)(=O)C(F)(F)F` [1-213], the “Bulrush pre (herbicidal efficacy grade)” value in series [1] (dosage 1000 g/ha active ingredient, vs untreated control) is given as 4 (90%-100% of herbicidal efficacy or phytotoxicity). In addition, the “Bulrush post (herbicidal efficacy grade)” value in series [3] (setting [9]) is listed as 4 (90%-100% of herbicidal efficacy or phytotoxicity). Further, in series [4] (setting [9]), the “False pimpernel post” value is on record as 2 (40%-69% of herbicidal efficacy or phytotoxicity). In addition, the “Phytotoxicity to paddy rice (grade)” value in series [5] (dosage 1000 g/ha active ingredient, treated 5 days after transplantation, vs untreated control) is 1 (1%-39% of herbicidal efficacy or phytotoxicity).
Consider `CC1(C)OC1C1(C)CN(Cc2ccccc2NS(=O)(=O)C(F)(F)F)C(=O)O1` (stereo not drawn) [Compound 1-176], for which the “Bulrush pre (herbicidal efficacy grade)” value in series [1] (dosage 1000 g/ha) is 4 (90%-100% of herbicidal efficacy or phytotoxicity). Moreover, the “False pimpernel pre” value in series [2] (dosage 1000 g/ha) is reported as 4 (90%-100% of herbicidal efficacy or phytotoxicity). Also, the “Bulrush post (herbicidal efficacy grade)” value in series [3] (setting [6]) is on record as 4 (90%-100% of herbicidal efficacy or phytotoxicity). In addition, in series [4] (setting [6]), the “False pimpernel post” value is listed as 4 (90%-100% of herbicidal efficacy or phytotoxicity). For the same compound, the “Phytotoxicity to paddy rice” value in series [5] (setting [7]) is recorded as 1 (1%-39% of herbicidal efficacy or phytotoxicity).
Consider `CCc1cn(Cc2ccccc2N(C(=O)OCC(C)C)S(=O)(=O)C(F)(F)F)c(=O)o1` [Compound 1-210], for which the “Bulrush pre (herbicidal efficacy grade)” value in series [1] (dosage 300 g/ha) was 3 (70%-89% of herbicidal efficacy or phytotoxicity). In series [2] (dosage 300 g/ha), the “False pimpernel pre” value is listed as 4 (90%-100% of herbicidal efficacy or phytotoxicity). Also, the “Bulrush post (herbicidal efficacy grade)” value in series [3] (setting [8]) is 4 (90%-100% of herbicidal efficacy or phytotoxicity). The “False pimpernel post” value in series [4] (setting [8]) was 0 (0% of herbicidal efficacy or phytotoxicity). In series [5] (dosage 300 g/ha), the “Phytotoxicity to paddy rice” value is 0 (0% of herbicidal efficacy or phytotoxicity).
Consider `CCOC1N(Cc2ccccc2NS(=O)(=O)C(F)(F)F)C(=O)OC1(C)C` (stereo not drawn) [Compound 1-198], for which, in series [1] (dosage 300 g/ha), the “Bulrush pre (herbicidal efficacy grade)” value is 4 (90%-100% of herbicidal efficacy or phytotoxicity). For the same compound, the “Phytotoxicity to paddy rice” value in series [5] (dosage 300 g/ha) is given as 2 (40%-69% of herbicidal efficacy or phytotoxicity).
